Measured values: PubChem BioAssay AID623863 (Southern Research Specialized Biocontainment Screening …, 2012)
Calls of active or inactive are those of the source. The rule behind the calls is not given here.

Biological target: Genome polyprotein (Dengue virus type 2 (strain 16681-PDK53)) (UniProt P29991)
Test: flavivirus RNA guanylyltransferase activity inhibition – biochemical, secondary assay, dose response (AID 623863)
Details: Dengue-2 NS5 guanylylation inhibition; for inhibition: at 50 µM (top of the series)

Genome polyprotein (Dengue virus type 2 (strain 16681-PDK53)), sequence (P29991 whole entry, looked up): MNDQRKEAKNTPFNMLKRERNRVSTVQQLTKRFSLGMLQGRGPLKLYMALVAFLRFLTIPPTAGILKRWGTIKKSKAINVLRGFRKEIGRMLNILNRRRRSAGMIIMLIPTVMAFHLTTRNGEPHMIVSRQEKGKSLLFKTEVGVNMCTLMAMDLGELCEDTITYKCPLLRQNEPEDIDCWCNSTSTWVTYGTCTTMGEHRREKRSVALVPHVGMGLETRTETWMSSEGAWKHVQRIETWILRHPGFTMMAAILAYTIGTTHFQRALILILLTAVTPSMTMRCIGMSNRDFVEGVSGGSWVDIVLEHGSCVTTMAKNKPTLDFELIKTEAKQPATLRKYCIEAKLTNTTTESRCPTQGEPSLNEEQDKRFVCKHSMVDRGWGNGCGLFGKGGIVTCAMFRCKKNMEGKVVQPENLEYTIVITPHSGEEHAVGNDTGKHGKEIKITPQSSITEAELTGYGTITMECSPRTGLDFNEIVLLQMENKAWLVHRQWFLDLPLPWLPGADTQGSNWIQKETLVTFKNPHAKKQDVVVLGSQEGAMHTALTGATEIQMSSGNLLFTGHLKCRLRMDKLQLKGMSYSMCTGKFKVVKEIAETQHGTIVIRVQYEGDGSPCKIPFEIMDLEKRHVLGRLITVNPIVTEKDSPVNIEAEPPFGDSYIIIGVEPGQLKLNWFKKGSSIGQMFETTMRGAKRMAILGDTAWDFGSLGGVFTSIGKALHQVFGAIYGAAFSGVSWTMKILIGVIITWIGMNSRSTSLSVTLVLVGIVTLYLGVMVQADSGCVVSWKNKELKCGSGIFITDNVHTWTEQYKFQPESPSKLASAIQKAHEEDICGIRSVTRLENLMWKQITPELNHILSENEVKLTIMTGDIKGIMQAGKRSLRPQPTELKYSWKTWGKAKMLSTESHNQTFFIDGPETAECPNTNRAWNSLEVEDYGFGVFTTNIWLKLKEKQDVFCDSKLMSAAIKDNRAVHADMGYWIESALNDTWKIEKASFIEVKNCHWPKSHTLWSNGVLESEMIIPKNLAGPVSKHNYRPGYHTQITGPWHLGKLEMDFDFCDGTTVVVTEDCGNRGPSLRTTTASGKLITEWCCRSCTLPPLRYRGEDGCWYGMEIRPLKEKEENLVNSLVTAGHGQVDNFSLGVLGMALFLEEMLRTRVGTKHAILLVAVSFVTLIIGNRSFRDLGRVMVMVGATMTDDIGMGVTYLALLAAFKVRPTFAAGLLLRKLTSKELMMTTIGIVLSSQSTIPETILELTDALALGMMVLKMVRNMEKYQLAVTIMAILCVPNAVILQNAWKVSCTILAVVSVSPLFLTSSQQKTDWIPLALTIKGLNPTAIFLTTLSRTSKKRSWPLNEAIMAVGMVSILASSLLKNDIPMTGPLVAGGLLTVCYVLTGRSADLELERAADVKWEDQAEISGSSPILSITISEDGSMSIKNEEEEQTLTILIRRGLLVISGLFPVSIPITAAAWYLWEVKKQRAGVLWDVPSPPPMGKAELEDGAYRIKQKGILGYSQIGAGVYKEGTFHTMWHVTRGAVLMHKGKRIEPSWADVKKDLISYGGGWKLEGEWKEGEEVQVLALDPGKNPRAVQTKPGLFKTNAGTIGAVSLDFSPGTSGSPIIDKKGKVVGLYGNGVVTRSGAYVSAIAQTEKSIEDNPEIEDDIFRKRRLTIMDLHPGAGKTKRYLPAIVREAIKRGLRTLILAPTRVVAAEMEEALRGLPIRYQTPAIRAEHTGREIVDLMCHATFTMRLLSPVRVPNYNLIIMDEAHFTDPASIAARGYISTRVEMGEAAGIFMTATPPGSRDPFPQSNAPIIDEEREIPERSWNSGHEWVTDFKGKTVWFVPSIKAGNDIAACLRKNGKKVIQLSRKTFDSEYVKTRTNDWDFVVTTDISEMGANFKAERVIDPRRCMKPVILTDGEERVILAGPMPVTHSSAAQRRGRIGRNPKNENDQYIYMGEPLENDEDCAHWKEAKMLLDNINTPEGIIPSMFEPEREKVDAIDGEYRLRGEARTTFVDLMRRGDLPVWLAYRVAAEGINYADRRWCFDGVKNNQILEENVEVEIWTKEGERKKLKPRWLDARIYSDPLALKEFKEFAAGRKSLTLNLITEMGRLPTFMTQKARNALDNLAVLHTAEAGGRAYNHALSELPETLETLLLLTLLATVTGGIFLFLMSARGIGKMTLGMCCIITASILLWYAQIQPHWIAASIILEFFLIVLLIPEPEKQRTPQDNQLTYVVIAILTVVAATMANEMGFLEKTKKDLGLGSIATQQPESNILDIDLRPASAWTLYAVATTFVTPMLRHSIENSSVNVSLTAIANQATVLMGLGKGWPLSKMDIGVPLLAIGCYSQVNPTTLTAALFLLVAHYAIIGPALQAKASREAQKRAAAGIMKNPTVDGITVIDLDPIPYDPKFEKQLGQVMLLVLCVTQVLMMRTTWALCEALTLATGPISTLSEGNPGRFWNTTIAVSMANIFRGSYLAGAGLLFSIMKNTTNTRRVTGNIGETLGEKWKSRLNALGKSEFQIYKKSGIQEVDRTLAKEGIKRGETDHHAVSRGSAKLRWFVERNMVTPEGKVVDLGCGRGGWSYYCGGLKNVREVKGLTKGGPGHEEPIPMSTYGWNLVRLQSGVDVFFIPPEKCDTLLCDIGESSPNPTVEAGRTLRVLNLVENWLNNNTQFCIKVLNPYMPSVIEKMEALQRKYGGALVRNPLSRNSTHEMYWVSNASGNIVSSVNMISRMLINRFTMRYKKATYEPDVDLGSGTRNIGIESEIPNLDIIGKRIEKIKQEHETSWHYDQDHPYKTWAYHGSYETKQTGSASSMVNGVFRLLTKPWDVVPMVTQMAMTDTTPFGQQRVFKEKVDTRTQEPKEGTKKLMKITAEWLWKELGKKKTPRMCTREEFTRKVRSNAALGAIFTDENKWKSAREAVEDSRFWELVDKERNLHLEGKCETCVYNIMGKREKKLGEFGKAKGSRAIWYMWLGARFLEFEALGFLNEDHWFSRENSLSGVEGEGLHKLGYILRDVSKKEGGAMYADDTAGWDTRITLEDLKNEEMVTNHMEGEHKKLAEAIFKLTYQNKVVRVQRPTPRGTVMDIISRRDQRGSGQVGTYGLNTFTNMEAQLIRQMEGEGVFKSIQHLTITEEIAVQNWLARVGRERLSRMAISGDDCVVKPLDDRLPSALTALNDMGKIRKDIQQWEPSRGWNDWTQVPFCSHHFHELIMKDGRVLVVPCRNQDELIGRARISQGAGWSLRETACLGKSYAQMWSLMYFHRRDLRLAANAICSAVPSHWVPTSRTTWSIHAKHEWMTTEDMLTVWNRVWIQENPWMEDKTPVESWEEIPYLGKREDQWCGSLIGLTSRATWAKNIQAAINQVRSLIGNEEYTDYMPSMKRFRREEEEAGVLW

IC50 [µM]	inhibition	Compound
18.3	–	O=[N+]([O-])c1cccc(S(=O)(=O)Nc2cc(Sc3nc4ccccc4s3)c(O)c3ccccc23)c1
–	inactive	O=S(=O)(Nc1cc(Sc2ncn[nH]2)c(O)c2ccccc12)c1ccc(F)cc1
–	inactive	Cc1cc(C)c(S(=O)(=O)Nc2cc(SCC(=O)O)c(O)c3ccccc23)c(C)c1
7.89	–	O=C(O)CSc1cc(NS(=O)(=O)c2ccc(Cl)cc2)c2ccccc2c1O
3.33	–	O=C(O)CSc1cc(NS(=O)(=O)c2cccc([N+](=O)[O-])c2)c2ccccc2c1O
47.9	–	O=S(=O)(Nc1cc(Sc2ccccc2)c(O)c2ccccc12)c1ccc(F)cc1
–	inactive	O=C(O)CSc1cc(NS(=O)(=O)c2ccc(F)cc2)c2ccccc2c1O
–	inactive	Cc1ccc(S(=O)(=O)Nc2cc(SCC(=O)O)c(O)c3ccccc23)cc1
–	inactive	Cc1cc(F)ccc1S(=O)(=O)Nc1cc(SCC(=O)O)c(O)c2ccccc12
7.51	–	Cn1c(=O)c2[nH]c(-c3ccc(Cl)cc3)c(O)c2n(C)c1=O
4.23	–	O=S(=O)(Nc1cc(SCc2ccccc2)c(O)c2ccccc12)c1ccc(Cl)cc1
2.37	–	O=C(O)CSc1cc(NS(=O)(=O)c2ccc(Br)cc2)c2ccccc2c1O
3.03	–	O=[N+]([O-])c1cccc(S(=O)(=O)Nc2cc(SCc3ccccc3)c(O)c3ccccc23)c1
46	–	Cc1ccc(S(=O)(=O)Nc2cc(Sc3nc(C)cc(C)n3)c(O)c3ccccc23)cc1
